Assay results from ChEMBL document CHEMBL1201862, “PubChem BioAssay data set” (2004).
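Results reflect a 48-hour exposure of cells in 96-well plates to compound at five concentrations. Here, GI50 denotes the concentration required for 50% inhibition of growth.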 The source made the active and inactive calls. Cut-off read from the data, not from the text of the source: active = GI50 up to about 1.1 µM and inactive = higher.

How the values were obtained:
Experiment in all cases: DTP human tumour cell line panel, 48 h
EKVX = tested on: EKVX
SK-MEL-2 = tested on: SK-MEL-2
OVCAR-8 = tested on: OVCAR-8
OVCAR-5 = tested on: OVCAR-5
Malme-3M = tested on: Malme-3M
CAKI-1 = tested on: CAKI-1
LOX IMVI = tested on: LOX IMVI
SW-620 = tested on: SW-620
ACHN = tested on: ACHN
HCT-15 = tested on: HCT-15
SNB-75 = tested on: SNB-75
OVCAR-3 = tested on: OVCAR-3
HOP-62 = tested on: HOP-62
SK-MEL-28 = tested on: SK-MEL-28
NCI-H522 = tested on: NCI-H522
UACC-62 = tested on: UACC-62
MOLT-4 = tested on: MOLT-4
COLO 205 = tested on: COLO 205
OVCAR-4 = tested on: OVCAR-4

Row | Compound | GI50 (EKVX) | GI50 (SK-MEL-2) | GI50 (OVCAR-8) | GI50 (OVCAR-5) | GI50 (Malme-3M) | GI50 (CAKI-1) | GI50 (LOX IMVI) | GI50 (SW-620) | GI50 (ACHN) | GI50 (HCT-15) [µM] | GI50 (SNB-75) | GI50 (OVCAR-3) | GI50 (HOP-62) | GI50 (SK-MEL-28) | GI50 (NCI-H522) | GI50 (UACC-62) | GI50 (MOLT-4) | GI50 (COLO 205) | GI50 (OVCAR-4)
1 | C=CCN1CC2CN=NC2(C#N)C1 (stereo not drawn) | > 100 µM (inactive) | > 100 µM (inactive) | > 100 µM (inactive) | > 100 µM (inactive) | > 100 µM (inactive) | > 100 µM (inactive) | > 100 µM (inactive) | > 100 µM (inactive) | > 100 µM (inactive) | > 100 | > 100 µM (inactive) | > 100 µM (inactive) | > 100 µM (inactive) | > 100 µM (inactive) | > 100 µM (inactive) | > 100 µM (inactive) | > 100 µM (inactive) | > 100 µM (inactive) | > 100 µM (inactive)
2 | O=C(OCc1ccccc1CN1CCOCC1)c1cccc(Br)c1 | 34.5 µM (inactive) | 22.3 µM (inactive) | 44.5 µM (inactive) | 36.3 µM (inactive) | 21.7 µM (inactive) | 40.2 µM (inactive) | 31.3 µM (inactive) | 53.6 µM (inactive) | 63.1 µM (inactive) | 36.4 | 31.2 µM (inactive) | 17.7 µM (inactive) | 53.2 µM (inactive) | 33.1 µM (inactive) | 20.9 µM (inactive) | 33.6 µM (inactive) | < 0.01 µM (active) | 39.4 µM (inactive) | 20.9 µM (inactive)
3 | COC(=O)C1=C(C(=O)OC)N(c2ccc(OC)cc2[N+](=O)[O-])C(c2ccc(C)cc2)=CC1c1ccc(OC)cc1OC (stereo not drawn) | 34.5 µM (inactive) | 29.6 µM (inactive) | 13.6 µM (inactive) | 34.5 µM (inactive) | 22.2 µM (inactive) | 28 µM (inactive) | 2.36 µM (inactive) | 3.88 µM (inactive) | 18.7 µM (inactive) | 4.65 | 18.7 µM (inactive) | 23.6 µM (inactive) | 26.4 µM (inactive) | 64.3 µM (inactive) | 14.1 µM (inactive) | 25.2 µM (inactive) | 8.79 µM (inactive) | 13.2 µM (inactive) | 44 µM (inactive)
4 | O=C1c2ccccc2C(=O)c2c1nc1ccccc1c2-c1cncc(-c2c3c(nc4ccccc24)C(=O)c2ccccc2C3=O)c1 | 3.85 µM (inactive) | 8.45 µM (inactive) | 1.52 µM (inactive) | 50.2 µM (inactive) | 11.9 µM (inactive) | 9.84 µM (inactive) | 1.67 µM (inactive) | 6.15 µM (inactive) | 4.08 µM (inactive) | 1.24 | 5.69 µM (inactive) | 5.7 µM (inactive) | 6.56 µM (inactive) | 12.4 µM (inactive) | 1.95 µM (inactive) | 5.65 µM (inactive) | 0.418 µM (active) | 2.85 µM (inactive) | 30.9 µM (inactive)
5 | CC(=O)Nc1ccc2c3c(cc(O)c2c1)N(C(=O)CCCCCCC(=O)N1CC(CCl)c2c1cc(O)c1cc(NC(C)=O)ccc21)CC3CCl (stereo not drawn) | 0.0505 µM (active) | < 0.01 µM (active) | < 0.01 µM (active) | 0.0325 µM (active) | < 0.01 µM (active) | < 0.0152 µM (active) | < 0.01 µM (active) | 0.0151 µM (active) | < 0.01 µM (active) | 0.231 | < 0.01 µM (active) | < 0.01 µM (active) | < 0.0116 µM (active) | 0.0148 µM (active) | < 0.01 µM (active) | < 0.01 µM (active) | < 0.01 µM (active) | 0.0105 µM (active) | 0.0419 µM (active)
6 | N#Cc1cccc(Nc2ccccc2SSc2ccccc2Nc2cccc(C#N)c2)c1 | 13.9 µM (inactive) | > 10 µM (inactive) | 8.11 µM (inactive) | 17.5 µM (inactive) | 11 µM (inactive) | 9.02 µM (inactive) | 2.73 µM (inactive) | 3.48 µM (inactive) | 8.73 µM (inactive) | 10.4 | 8.59 µM (inactive) | 9.12 µM (inactive) | 11.9 µM (inactive) | 13.3 µM (inactive) | 8.11 µM (inactive) | 7.1 µM (inactive) | 3.13 µM (inactive) | > 10 µM (inactive) | 10.7 µM (inactive)
7 | O=C(Nc1ccc2nc(-c3ccccc3)cn2c1)Oc1ccccc1 | 80 µM (inactive) | 46.7 µM (inactive) | 59.7 µM (inactive) | 78.2 µM (inactive) | 98.2 µM (inactive) | 97.9 µM (inactive) | 52 µM (inactive) | 48.6 µM (inactive) | > 100 µM (inactive) | 45.1 | 2.99 µM (inactive) | 38.6 µM (inactive) | > 100 µM (inactive) | > 100 µM (inactive) | 20.2 µM (inactive) | 37.9 µM (inactive) | 40.6 µM (inactive) | 48.6 µM (inactive) | 78.3 µM (inactive)
8 | Cc1cc(Cl)ccc1OCC(=O)Nc1nc(N)nc(N)n1 | > 100 µM (inactive) | > 100 µM (inactive) | > 100 µM (inactive) | > 100 µM (inactive) | > 100 µM (inactive) | > 100 µM (inactive) | > 100 µM (inactive) | > 100 µM (inactive) | > 100 µM (inactive) | > 100 | > 100 µM (inactive) | > 100 µM (inactive) | > 100 µM (inactive) | > 100 µM (inactive) | > 100 µM (inactive) | > 100 µM (inactive) | > 100 µM (inactive) | > 100 µM (inactive) | > 100 µM (inactive)
9 | CCOC(=O)c1c(C)[nH]c2c1c(CN(C)C)c(O)c1nc(C)c(C)nc12 | 27.3 µM (inactive) | 20.4 µM (inactive) | 21.4 µM (inactive) | 28.4 µM (inactive) | 18.5 µM (inactive) | 28.4 µM (inactive) | 19.4 µM (inactive) | 24.4 µM (inactive) | 20.5 µM (inactive) | 26.4 | 23.3 µM (inactive) | 26.5 µM (inactive) | 20 µM (inactive) | 25 µM (inactive) | 16.3 µM (inactive) | 15.6 µM (inactive) | 16 µM (inactive) | 14.5 µM (inactive) | 27.2 µM (inactive)
10 | CCSc1nnc(Sc2c3ccccc3nc3ccccc23)s1 | 11.6 µM (inactive) | 22.3 µM (inactive) | 20.3 µM (inactive) | 20 µM (inactive) | 7.01 µM (inactive) | 5.33 µM (inactive) | 6.7 µM (inactive) | 5.45 µM (inactive) | 5.19 µM (inactive) | 3.37 | 35.3 µM (inactive) | 13.1 µM (inactive) | > 58.6 µM (inactive) | 17.5 µM (inactive) | 2.37 µM (inactive) | 15 µM (inactive) | 2.63 µM (inactive) | 2.78 µM (inactive) | 16.9 µM (inactive)
11 | c1cc(-c2cnc(-c3ccc4c(c3)CCCO4)o2)ccn1 | 17.7 µM (inactive) | 11.9 µM (inactive) | 13.8 µM (inactive) | 13.6 µM (inactive) | 16.7 µM (inactive) | 15.6 µM (inactive) | 13.6 µM (inactive) | – | 14 µM (inactive) | 16.2 | 12.2 µM (inactive) | 16.4 µM (inactive) | 16.5 µM (inactive) | 18.1 µM (inactive) | 10 µM (inactive) | 17.1 µM (inactive) | 5.62 µM (inactive) | 18.5 µM (inactive) | 14.1 µM (inactive)
